Experimental data published in patent publication US8697730B2, “5-lipoxygenase activating protein (FLAP) inhibitor” (Panmira Pharmaceuticals, LLC, priority 2007, dated 2014).

Tests used:
[1] = Gravimetric Vapor Sorption (GVS); details: 25° C.; for hygroscopicity in words: GVS; for total weight change: between 0% RH and 90% RH
[2] = Aqueous solubility determination (thermodynamic solubility); details: for Appearance of mixture after equilibration for 24 hours: suspended in 0.25 mL of water, 25° C.; for pH of saturated solution / Concentration of filtrate (as mg/ml of free base): water, equilibrated at 25° C. for 24 hours; for Concentration of filtrate (as mg/ml of free base): HPLC
[3] = molecular target: CYP2C19 (Homo sapiens, UniProt P33261); details: microsomes
[4] = tested on: CYP2C9; details: tested at 10 μM; diclofenac substrate
[5] = molecular target: CYP2C9 (Homo sapiens, UniProt P11712); details: microsomes
[6] = tested on: whole blood ionophore-stimulated leukotriene LTB4; experiment: Phase 1 study, whole blood ionophore-stimulated LTB4; format: in vivo, human
Description: (§1) Pharmacodynamics: Whole blood ionophore-stimulated leukotriene LTB4 and urinary LTE4 production are assayed by ELISA and mass spectrometry, respectively.
(§2) Obtain pre-dose fasting blood samples for hematology determinations. Obtain pre-dose fasting blood samples for serum chemistry determinations. Obtain pre-dose blood samples (5 mL EDTA and 4 mL heparinized) for baseline PK and LTB4. Collect ‘spot’ urine prior to study drug administration for baseline (pre-dose) LTE4. Administer study drug. […] Collect blood samples (2 mL heparinized) for LTB4 at 0.5, 1, 2, 3, 4, 6, 8, and 12 hours. Collect urine for LTE4 for the following separate intervals: 0-3, 3-6, 6-9, and 9-12 hours. For twice daily dosing group (if conducted): administer study drug 12 hours±30 minutes after prior dose, preceded by ≧2 hours fast.
(§3) Obtain pre-dose fasting blood samples for hematology determinations. Obtain pre-dose fasting blood samples for serum chemistry determinations. […] Collect blood samples (2 mL heparinized) for LTB4 at 24 hours after the first study drug administration; 4 mL blood will be collected at this time point in the Single Dose Phase. Collect ‘spot’ urine sample for LTE4 at 24 and 36 hours after first study drug administration.
(§4) Obtain pre-dose blood samples (5 mL EDTA and 2 mL heparinized) for PK and LTB4. Collect pre-dose urine for LTE4. Administer study drug (last dose of drug). […] Collect blood samples (2 mL heparinized) for LTB4 at 0.5, 1, 2, 3, 4, 6, 8, and 12 hours. Collect urine for LTE4 for the following separate intervals: 0-3, 3-6, 6-9, and 9-12 hours after study drug administration.
(§5) Record vital signs 24 hours after Day 11 study drug administration. […] Collect blood sample (4 mL heparinized) for LTB4 at 24 hours after Day 11 study drug administration. Collect ‘spot’ urine sample for LTE4 at 24 hours after Day 11 study drug administration.
(§6) Whole blood ionophore-stimulated leukotriene LTB4 and urinary LTE4 production were assayed by ELISA and mass spectrometry, respectively.

[7] = molecular target: T1, CYP1A2 (Homo sapiens, UniProt P05177)
T1 sequence (P05177 1-516): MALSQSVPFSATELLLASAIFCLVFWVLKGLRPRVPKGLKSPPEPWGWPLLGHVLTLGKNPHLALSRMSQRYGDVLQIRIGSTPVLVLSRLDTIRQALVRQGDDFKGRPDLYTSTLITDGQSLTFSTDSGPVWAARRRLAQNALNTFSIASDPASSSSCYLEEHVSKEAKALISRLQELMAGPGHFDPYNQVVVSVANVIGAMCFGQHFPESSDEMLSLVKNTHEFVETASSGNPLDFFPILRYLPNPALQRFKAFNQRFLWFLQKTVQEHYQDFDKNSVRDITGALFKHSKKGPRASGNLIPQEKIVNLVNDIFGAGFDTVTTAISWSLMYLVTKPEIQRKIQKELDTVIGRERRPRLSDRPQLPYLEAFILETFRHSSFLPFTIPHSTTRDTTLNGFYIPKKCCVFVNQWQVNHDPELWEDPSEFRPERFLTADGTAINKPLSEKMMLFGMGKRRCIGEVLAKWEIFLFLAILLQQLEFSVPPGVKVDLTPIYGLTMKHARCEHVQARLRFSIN

[8] = molecular target: CYP2D6 (Homo sapiens, UniProt P10635); details: microsomes
[9] = tested on: urinary LTE4 production; experiment: Phase 1 study, urinary LTE4; format: in vivo, human
Description: as §1, §2, §3, §4, §5, §6

[10] = molecular target: CYP3A4 (Homo sapiens, UniProt P08684); details: microsomes
[11] = tested on: allergen-induced early and late phases of lung-volume decline; details: clinical trials / allergen-challenge studies; cited from earlier work
[12] = tested on: chronic asthma; details: chronic asthma studies; cited from earlier work
[13] = Storage stability of polymorphs; format: physicochemical; details: for change after 1 week storage (crystallinity / x-ray powder diffraction pattern, colour): 1 week at 40° C. and 75% RH
[14] = pH solubility profile; format: physicochemical; details: about 25° C.
[15] = Examination of liver weight change in mice; details: oral 250 mg/kg daily for 4 days, compared with vehicle control
Description: Twenty-four hours following the final administration mice were placed into an enclosed Plexiglas chamber and exposed to CO2 for a period of 1-2 minutes or until breathing ceased. They were then removed and blood was taken via a cardiac puncture and cervical dislocation was performed. Subjects were next placed in a supine position and a midline incision made. All organs were inspected and the livers removed by careful dissection. Liver weights were recorded as well as any gross abnormalities.

[16] = profile that may be obtained from a single dose administration to a human, dose not stated
[17] = Cycle 1, Scan 1, Adsorption, % RH load to 40
[18] = Cycle 1, Scan 2, Adsorption, % RH 0 to 40
[19] = Cycle 1, Scan 2, Adsorption, % RH 40 to 90
[20] = Cycle 1, Scan 2, Desorption, % RH 90 to 0
[21] = Cycle 2, Scan 3, Adsorption, % RH 40 to 90
[22] = Cycle 2, Scan 4, Adsorption, % RH 0 to 40
[23] = Cycle 2, Scan 4, Desorption, % RH 90 to 0

CYP3A4, sequence (P08684 whole entry): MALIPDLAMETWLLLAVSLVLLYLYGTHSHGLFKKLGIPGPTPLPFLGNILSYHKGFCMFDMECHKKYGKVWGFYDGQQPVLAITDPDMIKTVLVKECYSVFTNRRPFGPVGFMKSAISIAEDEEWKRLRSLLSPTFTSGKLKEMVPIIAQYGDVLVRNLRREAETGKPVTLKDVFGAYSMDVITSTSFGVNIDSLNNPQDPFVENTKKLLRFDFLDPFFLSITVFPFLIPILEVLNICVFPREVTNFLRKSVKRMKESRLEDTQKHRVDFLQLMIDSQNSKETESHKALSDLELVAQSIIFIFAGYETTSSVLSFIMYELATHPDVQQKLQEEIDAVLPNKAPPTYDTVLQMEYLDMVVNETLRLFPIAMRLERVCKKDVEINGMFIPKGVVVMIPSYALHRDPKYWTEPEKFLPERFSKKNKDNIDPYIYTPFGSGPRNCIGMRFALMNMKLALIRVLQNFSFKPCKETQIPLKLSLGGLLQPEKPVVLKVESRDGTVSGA
CYP2D6, sequence (P10635 whole entry): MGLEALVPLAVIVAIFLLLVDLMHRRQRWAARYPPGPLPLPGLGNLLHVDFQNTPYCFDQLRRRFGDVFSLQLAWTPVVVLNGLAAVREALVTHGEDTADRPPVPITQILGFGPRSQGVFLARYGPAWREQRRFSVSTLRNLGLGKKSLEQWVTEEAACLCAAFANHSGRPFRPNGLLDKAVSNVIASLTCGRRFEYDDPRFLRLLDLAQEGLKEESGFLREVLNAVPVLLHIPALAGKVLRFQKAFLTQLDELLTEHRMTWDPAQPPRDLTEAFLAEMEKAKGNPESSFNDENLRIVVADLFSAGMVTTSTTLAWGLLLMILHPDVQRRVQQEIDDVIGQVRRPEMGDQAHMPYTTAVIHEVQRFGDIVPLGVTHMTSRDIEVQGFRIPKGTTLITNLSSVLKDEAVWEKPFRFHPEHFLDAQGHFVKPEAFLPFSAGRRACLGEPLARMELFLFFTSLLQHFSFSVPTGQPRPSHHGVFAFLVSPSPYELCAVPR
CYP2C19, sequence (P33261 whole entry): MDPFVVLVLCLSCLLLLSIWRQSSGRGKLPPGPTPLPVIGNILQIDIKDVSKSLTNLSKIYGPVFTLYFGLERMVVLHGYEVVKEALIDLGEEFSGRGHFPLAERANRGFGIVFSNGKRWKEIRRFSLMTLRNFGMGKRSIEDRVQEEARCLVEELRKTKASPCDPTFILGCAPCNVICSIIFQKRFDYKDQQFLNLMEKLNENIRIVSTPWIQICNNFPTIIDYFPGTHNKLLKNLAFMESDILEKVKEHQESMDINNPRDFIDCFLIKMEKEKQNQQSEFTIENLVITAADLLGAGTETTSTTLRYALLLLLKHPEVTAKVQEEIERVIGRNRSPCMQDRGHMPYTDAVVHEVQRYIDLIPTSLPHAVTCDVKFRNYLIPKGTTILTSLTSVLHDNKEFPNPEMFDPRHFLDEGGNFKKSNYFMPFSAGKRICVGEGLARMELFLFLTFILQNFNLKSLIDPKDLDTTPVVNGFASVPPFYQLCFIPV
CYP2C9 (Homo sapiens, UniProt P11712), sequence (P11712 whole entry): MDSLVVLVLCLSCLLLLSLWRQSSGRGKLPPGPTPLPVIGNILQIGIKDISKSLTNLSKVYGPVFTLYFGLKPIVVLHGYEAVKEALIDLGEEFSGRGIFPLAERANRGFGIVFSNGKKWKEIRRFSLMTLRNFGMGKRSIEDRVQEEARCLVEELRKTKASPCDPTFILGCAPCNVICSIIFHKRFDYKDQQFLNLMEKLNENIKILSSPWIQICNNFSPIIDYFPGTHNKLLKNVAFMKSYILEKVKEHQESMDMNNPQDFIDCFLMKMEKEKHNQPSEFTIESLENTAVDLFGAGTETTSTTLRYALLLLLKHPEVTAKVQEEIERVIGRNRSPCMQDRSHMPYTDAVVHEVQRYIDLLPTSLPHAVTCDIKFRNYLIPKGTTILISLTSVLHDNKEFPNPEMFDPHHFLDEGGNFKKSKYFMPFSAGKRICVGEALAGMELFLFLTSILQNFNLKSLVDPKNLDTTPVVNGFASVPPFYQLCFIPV

SMILES: COc1ccc(-c2ccc(Cn3c(CC(C)(C)C(=O)O)c(SC(C)(C)C)c4cc(OCc5ccccn5)ccc43)cc2)cn1 [Crystalline Free Acid]
- stability to changes in humidity (XRPD after GVS experiment) [1]: stable to changes in humidity
- % weight change ([1]; Cycle 1, Scan 1, Adsorption, % RH load to 40, listed as crystalline 3-[5-(pyridin-2-ylmethoxy)-3-(2-methyl-2-propylthio)-1-[4-(2-methoxy)): 0.00%
- % weight change ([1]; Cycle 1, Scan 2, Adsorption, % RH 0 to 40, listed as crystalline 3-[5-(pyridin-2-ylmethoxy)-3-(2-methyl-2-propylthio)-1-[4-(2-methoxy)): 0.07%
- % weight change ([1]; Cycle 1, Scan 2, Adsorption, % RH 40 to 90, listed as crystalline 3-[5-(pyridin-2-ylmethoxy)-3-(2-methyl-2-propylthio)-1-[4-(2-methoxy)): 0.34%
- % weight change ([1]; Cycle 1, Scan 2, Desorption, % RH 90 to 0, listed as crystalline 3-[5-(pyridin-2-ylmethoxy)-3-(2-methyl-2-propylthio)-1-[4-(2-methoxy)): −0.42%
- % weight change ([1]; Cycle 2, Scan 3, Adsorption, % RH 40 to 90, listed as crystalline 3-[5-(pyridin-2-ylmethoxy)-3-(2-methyl-2-propylthio)-1-[4-(2-methoxy)): 0.29%
- % weight change ([1]; Cycle 2, Scan 4, Adsorption, % RH 0 to 40, listed as crystalline 3-[5-(pyridin-2-ylmethoxy)-3-(2-methyl-2-propylthio)-1-[4-(2-methoxy)): 0.08%
- % weight change ([1]; Cycle 2, Scan 4, Desorption, % RH 90 to 0, listed as crystalline 3-[5-(pyridin-2-ylmethoxy)-3-(2-methyl-2-propylthio)-1-[4-(2-methoxy)): −0.40%
- hygroscopicity in words ([1]; listed as Crystalline 3-[5-(pyrid-2-ylmethoxy)-3-(2-methyl-2-propylthio)-1-[4-(2-methoxypy)): not hygroscopic
- Appearance of mixture after equilibration for 24 hours [2]: Suspension
- pH of saturated solution [2]: 7.88
- Concentration of filtrate (as mg/ml of free base) [2]: 0.0019 mg/mL

SMILES: COc1ccc(-c2ccc(Cn3c(CC(C)(C)C(=O)O)c(SC(C)(C)C)c4cc(OCc5ccccn5)ccc43)cc2)cn1 [sodium 3-[5-(pyrid-2-ylmethoxy)-3-(2-methyl-2-propylthio)-1-] [sodium 3-[5-(pyridin-2-ylmethoxy)-3-(2-methyl-2-propylthio)-1-[4-(2-methoxypyridin-5-yl)benzyl]-indol-2-yl]-2,2-dimethyl-propionate]
- inhibition in words [3]: weakly inhibited
- CYP2C9 induction in words [4]: No apparent induction
- inhibition in words [5]: No apparent inhibition
- inhibition of blood LTB4 levels at 8 hours (Ionophore Challenge) [6, 16]: ≥ 80%
- inhibition of blood LTB4 levels at 24 hours (Ionophore Challenge) [6, 16]: ≥ 30%
- inhibition in words [7]: No apparent inhibition
- inhibition in words [8]: No apparent inhibition
- inhibition of urinary LTE4 levels at 24 hours [9, 16]: ≥ 80%
- IC50 ([10]; human, pH 7.4): > 50 µM
- inhibition in words [10]: No apparent inhibition

SMILES: O=C(O)[C@@H](c1ccc(OCc2ccc3ccccc3n2)cc1)C1CCCC1 [BAYX-1005, (R)-2-[4-(quinolin-2-yl-methoxy)phenyl]-2-cyclopentyl acetic acid]
- efficacy in words [11]: shown efficacy

SMILES: COc1ccc(-c2ccc(Cn3c(CC(C)(C)C(=O)O)c(SC(C)(C)C)c4cc(OCc5ccccn5)ccc43)cc2)cn1
- effect on LTB4 levels in humans, in words ([6]; clinical trial summary): lowers
- effect on LTE4 levels in humans, in words ([9]; clinical trial summary): lowers

SMILES: CC(C)(C)Sc1c(CC(C)(C)C(=O)O)n(Cc2ccc(Cl)cc2)c2ccc(OCc3ccc4ccccc4n3)cc12 [MK-0591, 3-[1-(4-chlorobenzyl)-3-(tert-butylthio)-5-(quinolin-2-ylmethoxy)indol-2-yl]-2,2-dimethyl propanoic acid]
- efficacy in words [12]: shown efficacy
- efficacy in words [11]: shown efficacy

SMILES: COc1ccc(-c2ccc(Cn3c(CC(C)(C)C(=O)O)c(SC(C)(C)C)c4cc(OCc5ccccn5)ccc43)cc2)cn1 [Form B]
- stability to changes in humidity (XRPD after GVS experiment) [1]: stable to changes in humidity
- % weight change [1, 17]: −1.54%
- % weight change [1, 18]: 3.73%
- % weight change [1, 19]: 20.92%
- % weight change [1, 20]: −25.51%
- % weight change [1, 21]: 20.72%
- % weight change [1, 22]: 3.66%
- % weight change [1, 23]: −24.45%
- hygroscopicity in words [1]: very hygroscopic
- total weight change [1]: 26%
- change after 1 week storage (crystallinity / x-ray powder diffraction pattern, colour) [13]: loses its crystallinity and the colour changes to yellow
- physical and chemical stability ([13]; conditions not stated): physically and chemically stable
- Concentration (mg/mL) ([14]; pH about 1.1): about 0.690 mg/mL
- Concentration (mg/mL) ([14]; pH about 4.9): about 0.0594 mg/mL
- Concentration (mg/mL) ([14]; pH about 8.8): about 0.00573 mg/mL
- Concentration (mg/mL) ([14]; pH about 9.2): about 9.80 mg/mL
- Concentration (mg/mL) ([14]; pH about 9.8): about 53.1 mg/mL
- Concentration ([14]; pH about 10.4): >70 mg/mL
- Appearance of mixture after equilibration for 24 hours [2]: Fine Suspension
- pH of saturated solution [2]: 9.95
- Concentration of filtrate (as mg/ml of free base) [2]: 5.4 mg/mL

SMILES: COc1ccc(-c2ccc(Cn3c(CC(C)(C)C(=O)O)c(SC(C)(C)C)c4cc(OCc5ccccn5)ccc43)cc2)cn1 [3-[5-(pyridin-2-ylmethoxy)-3-(2-methyl-2-propylthio)-1-[4-(2]
- CYP2C9 induction in words [4]: not an inducer

SMILES: COc1ccc(-c2ccc(Cn3c(CC(C)(C)C(=O)O)c(SC(C)(C)C)c4cc(OCc5ccccn5)ccc43)cc2)cn1 [Form C]
- stability to changes in humidity (XRPD after GVS experiment) [1]: stable to changes in humidity
- % weight change [1, 17]: −0.37%
- % weight change [1, 18]: 1.98%
- % weight change [1, 19]: 13.83%
- % weight change [1, 20]: −16.23%
- % weight change [1, 21]: 14.52%
- % weight change [1, 22]: 2.01%
- % weight change [1, 23]: −16.51%
- hygroscopicity in words [1]: hygroscopic
- total weight change [1]: 16%
- change after 1 week storage (crystallinity / x-ray powder diffraction pattern, colour) [13]: No change
- physical and chemical stability ([13]; 5° C., 25° C./60% RH and 40° C./75% RH for at least two months): physically and chemically stable
- aqueous solubility compared between forms [2]: more soluble than Form B and the crystalline free acid
- Appearance of mixture after equilibration for 24 hours [2]: Fine Suspension
- pH of saturated solution [2]: 10.05
- Concentration of filtrate (as mg/ml of free base) [2]: >10 mg/mL

SMILES: CC(C)c1ccc2c(c1)c(SC(C)(C)C)c(CC(C)(C)C(=O)O)n2Cc1ccc(Cl)cc1 [MK-866, 3-[1-(4-chlorobenzyl)-3-(tert-butylthio)-5-(isopropyl)-indol-2-yl]-2,2-dimethyl propanoic acid]
- efficacy in words [11]: shown efficacy

SMILES: CC(c1cc2ccccc2s1)N(O)C(N)=O (stereo not drawn) [Zileuton]
- efficacy in words [12]: exhibited clinical efficacy
- efficacy in words [11]: not effective
- liver weight alteration [15]: 36.0%
